Source: patent publication US20180273528A1 (LES LABORATOIRES SERVIER, priority 2015, published 2018)

Biological target: T1, His-TEV-DYRK1A Kinase domain (aa127-485) (Homo sapiens, UniProt Q13627)
T1 construct: His-TEV-DYRK1A Kinase domain (aa127-485); His tag (N); TEV protease cleavage site (N)
Assay: Kinase ADP assay (ADP Hunter), DYRK1A kinase domain
Format: biochemical
Details: 20 μM ATP
Method: The enzyme reaction was conducted in assay buffer (pH 7.4), containing 15 mM Hepes; 20 mM NaCl; 1 mM EGTA; 10 mM MgCl2; 0.02% Tween20 and 0.1 mg/ml Bovine-y-globulin. Test compounds of the invention were added in reaction buffer in a range of concentrations for 10 minutes at 30° C. in the presence of 20 nM DYRK1A enzyme, 40 μM peptide substrate and 20 μM ATP. Detection reagents (DiscoveRx 90-0083), ADP Hunter Plus Reagent A and then ADP Hunter Plus Reagent B were added. After a following 20 minutes incubation at 30° C., ADP Hunter Plus Stop Solution was added. The fluorescence intensity was measured at 590 nm.

| Compound | IC50 |
| --- | --- |
| 4-{3-[2-(2,6-dimethoxyphenoxy)ethyl]-3H-imidazo[4,5-b]pyridin-5-yl}pyridine-2,6-diamine [Example 213] | 0.069 µM |
| Cc1nc2ccc(-c3cc(N)nc(N)c3)nc2n1[C@@H](C)COc1ccccc1 (single isomer, unassigned) [Example 105] | 0.092 µM |
| Cc1nc2ccc(-c3cc(N)nc(N)c3)nc2n1C[C@@H](C)Oc1ccc(F)cc1 (single isomer, unassigned) [Example 130] | 0.058 µM |
| Cc1nc2ccc(-c3cc(N)nc(N)c3)nc2n1C[C@H](C)Oc1ccc(F)cn1 (single isomer, unassigned) [Example 178] | 0.176 µM |
| Cc1nc2ccc(-c3cc(N)nc(N)c3)nc2n1C[C@@H](C)Oc1cccc(Br)n1 (single isomer, unassigned) [Example 181] | 0.081 µM |
| Cc1nc2ccc(-c3cc(N)nc(N)c3)nc2n1C[C@@H](C)Oc1ncccc1Br (single isomer, unassigned) [Example 183] | 0.226 µM |
| Cc1nc2ccc(-c3cc(N)nc(N)c3)nc2n1C[C@H](C)Oc1ccc(Cl)cn1 (single isomer, unassigned) [Example 184] | 0.165 µM |
| Cc1nc2ccc(-c3cc(N)nc(N)c3)nc2n1C[C@H](C)Oc1ccc(Br)cn1 (single isomer, unassigned) [Example 186] | 0.154 µM |
| Cc1nc2ccc(-c3cc(N)nc(N)c3)nc2n1C[C@@H](C)Oc1ncccc1Cl (single isomer, unassigned) [Example 191] | 0.2 µM |
| Cc1nc2ccc(-c3cc(N)nc(N)c3)nc2n1C[C@H](C)Oc1nc(F)ccc1F (single isomer, unassigned) [Example 192] | 0.084 µM |
| Cc1nc2ccc(-c3cc(N)nc(N)c3)nc2n1C(C)Cc1ccco1 (stereo not drawn) [Example 82, 4-{3-[1-(furan-2-yl)propan-2-yl]-2-methyl-3H-imidazo[4,5-b]pyridin-5-yl}pyridine-2,6-diamine] | 0.096 µM |
| CCCCc1nc2ccc(-c3cc(N)nc(N)c3)nc2n1CCOc1ccccc1 [Example 146, 4-[2-butyl-3-(2-phenoxyethyl)-3H-imidazo[4,5-b]pyridin-5-yl]pyridine-2,6-diamine] | 0.089 µM |
| CCCc1nc2ccc(-c3cc(N)nc(N)c3)nc2n1CCOc1ccccc1 [Example 162, 4-[3-(2-phenoxyethyl)-2-propyl-3H-imidazo[4,5-b]pyridin-5-yl]pyridine-2,6-diamine] | 0.056 µM |
| Cc1nc2ccc(-c3cc(N)nc(N)c3)nc2n1CCOc1ncccc1Br [Example 169, 4-(3-{2-[(3-bromopyridin-2-yl)oxy]ethyl}-2-methyl-3H-imidazo[4,5-b]pyridin-5-yl)pyridine-2,6-diamine] | 0.055 µM |
| Cc1nc2ccc(-c3cc(N)nc(N)c3)nc2n1C[C@@H](C)Oc1ccc(Br)cn1 [Example 187] | 0.082 µM |
| COc1ccc(C)cc1OCCn1c(C)nc2ccc(-c3cc(N)nc(N)c3)nc21 [Example 211, 4-{3-[2-(2-methoxy-5-methylphenoxy)ethyl]-2-methyl-3H-imidazo[4,5-b]pyridin-5-yl}pyridine-2,6-diamine] | 0.049 µM |
| Cc1nc2ccc(-c3cc(N)nc(N)c3)nc2n1CCOc1ccccc1OC(C)C [Example 214, 4-(2-methyl-3-{2-[2-(propan-2-yloxy)phenoxy]ethyl}-3H-imidazo[4,5-b]pyridin-5-yl)pyridine-2,6-diamine] | 0.072 µM |
| CCOc1ccccc1OCCn1c(C)nc2ccc(-c3cc(N)nc(N)c3)nc21 [Example 215, 4-{3-[2-(2-ethoxyphenoxy)ethyl]-2-methyl-3H-imidazo[4,5-b]pyridin-5-yl}pyridine-2,6-diamine] | 0.066 µM |
| Cc1nc2ccc(-c3cc(N)nc(N)c3)nc2n1CCOc1ccnn1C [Example 218, 4-(2-methyl-3-{2-[(1-methyl-1H-pyrazol-5-yl)oxy]ethyl}-3H-imidazo[4,5-b]pyridin-5-yl)pyridine-2,6-diamine] | 0.057 µM |
| C=CCCn1c(C)nc2ccc(-c3ccnc(N)c3)nc21 [Example 239, 4-[3-(but-3-en-1-yl)-2-methyl-3H-imidazo[4,5-b]pyridin-5-yl]pyridin-2-amine] | 0.068 µM |
| Cc1nc2ccc(-c3cc(F)nc(N)c3F)nc2n1C1CC1 [Example 241, 4-(3-cyclopropyl-2-methyl-3H-imidazo[4,5-b]pyridin-5-yl)-3,6-difluoropyridin-2-amine] | 0.098 µM |
| Cc1nc2ccc(-c3c(F)c(N)nc(N)c3F)nc2n1C1CC1 [Example 242, 4-(3-cyclopropyl-2-methyl-3H-imidazo[4,5-b]pyridin-5-yl)-3,5-difluoropyridine-2,6-diamine] | 0.154 µM |

The next compounds have a lower IC50 than those just listed; values first:

| IC50 | Compound |
| --- | --- |
| 0.045 µM | Cc1nc2ccc(-c3cc(N)nc(N)c3)nc2n1[C@H](C)COc1ccccc1 (single isomer, unassigned) [Example 104] |
| 0.043 µM | Cc1nc2ccc(-c3cc(N)nc(N)c3)nc2n1CC1CCOCC1 [Example 80, 4-[2-methyl-3-(tetrahydro-2H-pyran-4-ylmethyl)-3H-imidazo[4,5-b]pyridin-5-yl]pyridine-2,6-diamine] |
| 0.043 µM | CCc1nc2ccc(-c3cc(N)nc(N)c3)nc2n1C [Example 159, 4-(2-ethyl-3-methyl-3H-imidazo[4,5-b]pyridin-5-yl)pyridine-2,6-diamine] |
| 0.041 µM | Cc1nc2ccc(-c3cc(N)nc(N)c3)nc2n1C[C@@H](C)Oc1ccc(Cl)cn1 (single isomer, unassigned) [Example 185] |
| 0.041 µM | Cc1nc2ccc(-c3cc(N)nc(N)c3)nc2n1CCOc1ccccc1Cl [Example 204, 4-{3-[2-(2-chlorophenoxy)ethyl]-2-methyl-3H-imidazo[4,5-b]pyridin-5-yl}pyridine-2,6-diamine] |
| 0.04 µM | Cc1nc2ccc(-c3cc(N)nc(N)c3)nc2n1CC1CCCOC1 (stereo not drawn) [Example 76, 4-[2-methyl-3-(tetrahydro-2H-pyran-3-ylmethyl)-3H-imidazo[4,5-b]pyridin-5-yl]pyridine-2,6-diamine] |
| 0.04 µM | Cc1nc2ccc(-c3cc(N)nc(N)c3)nc2n1CCOc1ncccn1 [Example 219, 4-{2-methyl-3-[2-(pyrimidin-2-yloxy)ethyl]-3H-imidazo[4,5-b]pyridin-5-yl}pyridine-2,6-diamine] |
| 0.037 µM | COc1ccccc1O[C@H](C)Cn1c(C)nc2ccc(-c3cc(N)nc(N)c3)nc21 (single isomer, unassigned) [Example 142] |
| 0.033 µM | CCCc1nc2ccc(-c3cc(N)nc(N)c3)nc2n1C [Example 163, 4-(3-methyl-2-propyl-31-imidazo[4,5-b]pyridin-5-yl)pyridine-2,6-diamine] |
| 0.031 µM | Cc1nc2ccc(-c3cc(N)nc(N)c3)nc2n1C[C@@H](C)Oc1ccccc1Cl (single isomer, unassigned) [Example 118] |
| 0.03 µM | Cc1ccccc1OCCn1c(C)nc2ccc(-c3cc(N)nc(N)c3)nc21 [Example 205, 4-{2-methyl-3-[2-(2-methylphenoxy)ethyl]-3H-imidazo[4,5-b]pyridin-5-yl}pyridine-2,6-diamine] |
| 0.029 µM | Cc1nc2ccc(-c3cc(N)nc(N)c3)nc2n1CCOc1cccnc1 [Example 216, 4-{2-methyl-3-[2-(pyridin-3-yloxy)ethyl]-3H-imidazo[4,5-b]pyridin-5-yl}pyridine-2,6-diamine] |
| 0.028 µM | Cc1nc2ccc(-c3cc(N)nc(N)c3)nc2n1C[C@@H](C)Oc1nc(F)ccc1F (single isomer, unassigned) [Example 193] |
| 0.025 µM | COc1ccc(OCCn2c(C)nc3ccc(-c4cc(N)nc(N)c4)nc32)cc1 [Example 209, 4-{3-[2-(4-methoxyphenoxy)ethyl]-2-methyl-3H-imidazo[4,5-b]pyridin-5-yl}pyridine-2,6-diamine] |
| 0.021 µM | CCCCc1nc2ccc(-c3cc(N)nc(N)c3)nc2n1C [Example 147, 4-(2-butyl-3-methyl-3H-imidazo[4,5-b]pyridin-5-yl)pyridine-2,6-diamine] |
| 0.021 µM | Cc1cccc(OCCn2c(C)nc3ccc(-c4cc(N)nc(N)c4)nc32)c1 [Example 201, 4-{2-methyl-3-[2-(3-methylphenoxy)ethyl]-3H-imidazo[4,5-b]pyridin-5-yl}pyridine-2,6-diamine] |
| 0.017 µM | Cc1nc2ccc(-c3cc(N)nc(N)c3)nc2n1CCc1cccc(OC(C)C)c1 [Example 87] |
| 0.017 µM | Cc1nc2ccc(-c3cc(N)nc(N)c3)nc2n1CCC1CCCCC1C (stereo not drawn) [Example 102, 4-{2-methyl-3-[2-(2-methylcyclohexyl)ethyl]-3H-imidazo[4,5-b]pyridin-5-yl}pyridine-2,6-diamine] |
| 0.013 µM | Cc1nc2ccc(-c3cc(N)nc(N)c3)nc2n1CCCCO [Example 70, 4-[5-(2,6-diaminopyridin-4-yl)-2-methyl-3H-imidazo[4,5-b]pyridin-3-yl]butan-1-ol] |
| 0.012 µM | Cc1nc2ccc(-c3cc(N)nc(N)c3)nc2n1C/C=C/c1ccccc1 [Example 111, 4-{2-methyl-3-[(2E)-3-phenylprop-2-en-1-yl]-3H-imidazo[4,5-b]pyridin-5-yl}pyridine-2,6-diamine] |
